Tests used:
[1] = tested on: GM-CSFR/JAK2/STAT5 pathway in CSTF-1 cells; test: CSTF-1 cell-based reporter assay (beta-lactamase, GM-CSF stimulated); set-up: species or system human; conditions: Homo sapiens; GM-CSF at 2 ng/mL, 4 hours; read-out: Cell Assay: CS TF-1 reporter assay IC50
Protocol: CSTF-1 Cell-Based Reporter Assay
CSTF-1 cells are derived from the human erythroleukemia cell line that is growth dependent on GM-CSF and has an intact GM-CSFR/JAK2/STAT5 pathway. The cell line contains stably integrated beta-lactamase reporter gene under the control of the […] (irf 1) response element recognized by the activated transcription factor STATS. csTF-1 cells (Invitrogen K1219) were washed with assay media (97% OPTIMEM/ 0.5% dialyzed FBS/0.1 mM NEAA/1 mM Na pyr/P/S) and seeded in the same media at 5×10^5 cell/mL in T150 flask. After 16 hour incubation, cells were seeded at 2×10^5 cell/well in 50 μl volume, into Costar, clear bottom, 96-well assay plates. Serial dilutions of compounds were added to the plates with final DMSO concentration at 0.5% and GM-CSF at 2 ng/mL and the plates were then incubated at […] and 5% CO2 for 4 hours. The plates were brought to room temperature before adding Substrate Mixture according to manufacturer's protocol (Invitrogen, Catalog #K1085). The assay plates containing the substrate mixture were incubated in the dark at room temperature for 2 hours. Blue and green fluorescence was measured with excitation at 409 nm and emission at 460 nm (for blue) and excitation at 409 nm and emission at 530 nm (for green) using Spectra Max Gemini EM.

[2] = molecular target: T1, JAK2 (Homo sapiens, UniProt O60674); test: Competition binding assay, JAK2
T1 construct: made in house
Excerpt: (§1) Competition Binding Assay to Determine Binding Constants (Kd) of the Compounds Against JAK Kinases
(§2) Competition binding assays used herein were developed, validated and performed as described in Fabian et al., Nature Biotechnology 2005, 23,329-336. Kinases were produced as fusions to T7 phage (See, Fabian et al. or WO04/015142) or alternatively, the kinases were expressed in HEK-293 cells and subsequently tagged with DNA for PCR detection (See, WO08/005310). For the binding assays, streptavidin-coated magnetic beads were treated with biotinylated affinity ligands for 30 min at rt to generate affinity resins. The liganded beads were blocked with excess biotin and washed with blocking buffer (SeaBlock (Pierce), 1% BSA, 0.05% Tween 20, 1 mM DTT) to remove unbound ligand and to reduce non-specific binding. Binding reactions were assembled by combining kinase, liganded affinity beads, and test compounds in 1× binding buffer (20% SeaBlock, 0.17×PBS, 0.05% Tween 20, 6 mM DTT). Test compounds were prepared as 100× stocks in DMSO and rapidly diluted into the aqueous environment. DMSO was added to control assays lacking a test compound. Primary screen interactions were performed in polypropylene 384-well plates in a final volume of 34 μL, while Kd determinations were performed in polystyrene 96-well plates in a final volume of 135 μL. The assay plates were incubated at room temperature with shaking for 1 hour, long enough for binding reactions to reach equilibrium, and the affinity beads were washed extensively with wash buffer (1× PBS, 0.05% Tween 20) to remove unbound protein. The beads were then resuspended in elution buffer (1× PBS, 0.05% Tween 20, 2 μM non-biotinylated affinity ligand) and incubated at room temperature with shaking for 30 min. The kinase concentration in the eluates was measured by quantitative PCR. Each kinase was tested individually against each compound. Kds were determined using eleven serial threefold dilutions. A selectivity score, which is a quantitative measure of selectivity of a compound against a panel of enzymes, may be calculated for a compound by dividing the number of enzymes for which a compound meets a set criteria, (for example, a binding constant of 100 nM or less), by the total number of enzymes tested.

[3] = molecular target: T2, JAK3 (Homo sapiens, UniProt P52333); test: Competition binding assay, JAK3
T2 construct: made in house
T2 sequence (P52333 1-1124): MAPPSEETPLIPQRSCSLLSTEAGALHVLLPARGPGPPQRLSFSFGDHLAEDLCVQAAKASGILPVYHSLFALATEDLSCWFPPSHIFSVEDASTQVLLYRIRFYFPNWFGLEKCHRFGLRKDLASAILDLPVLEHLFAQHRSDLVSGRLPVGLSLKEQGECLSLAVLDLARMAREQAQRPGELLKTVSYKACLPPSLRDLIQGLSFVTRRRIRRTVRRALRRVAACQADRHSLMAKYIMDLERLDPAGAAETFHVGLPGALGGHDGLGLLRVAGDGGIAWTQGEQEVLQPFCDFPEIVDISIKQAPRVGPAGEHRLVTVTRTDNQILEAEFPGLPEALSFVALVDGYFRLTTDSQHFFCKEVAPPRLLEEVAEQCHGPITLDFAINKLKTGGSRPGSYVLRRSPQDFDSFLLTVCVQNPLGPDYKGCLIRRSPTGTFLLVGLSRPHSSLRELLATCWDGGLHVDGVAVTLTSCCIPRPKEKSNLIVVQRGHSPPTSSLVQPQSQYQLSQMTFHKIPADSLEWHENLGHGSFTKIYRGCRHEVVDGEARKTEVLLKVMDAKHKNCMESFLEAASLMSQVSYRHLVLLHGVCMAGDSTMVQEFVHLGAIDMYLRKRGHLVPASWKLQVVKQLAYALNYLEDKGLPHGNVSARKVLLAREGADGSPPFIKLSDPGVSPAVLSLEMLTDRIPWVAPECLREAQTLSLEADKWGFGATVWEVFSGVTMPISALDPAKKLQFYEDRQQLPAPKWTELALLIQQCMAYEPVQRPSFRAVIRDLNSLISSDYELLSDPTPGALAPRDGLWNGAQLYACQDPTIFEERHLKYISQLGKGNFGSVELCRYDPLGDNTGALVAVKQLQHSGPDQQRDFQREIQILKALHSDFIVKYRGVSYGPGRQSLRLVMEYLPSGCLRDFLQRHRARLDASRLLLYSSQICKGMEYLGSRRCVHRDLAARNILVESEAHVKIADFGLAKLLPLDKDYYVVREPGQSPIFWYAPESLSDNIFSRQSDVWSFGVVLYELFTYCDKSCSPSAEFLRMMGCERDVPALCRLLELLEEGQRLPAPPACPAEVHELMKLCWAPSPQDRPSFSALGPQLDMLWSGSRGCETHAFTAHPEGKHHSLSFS
Excerpt: as §1, §2

[4] = molecular target: T3, TYK2 (Homo sapiens, UniProt P29597); test: Competition binding assay, TYK2
T3 construct: made in house
Excerpt: as §1, §2

[5] = tested on: distinct kinases tested excluding mutant variants, typically 359 or 386 kinases; test: Kinase selectivity score from competition binding panel; conditions: compound at 10 μM; fraction of kinases with inhibition of 90% or greater
Protocol: as §2

T3 sequence (P29597 whole entry): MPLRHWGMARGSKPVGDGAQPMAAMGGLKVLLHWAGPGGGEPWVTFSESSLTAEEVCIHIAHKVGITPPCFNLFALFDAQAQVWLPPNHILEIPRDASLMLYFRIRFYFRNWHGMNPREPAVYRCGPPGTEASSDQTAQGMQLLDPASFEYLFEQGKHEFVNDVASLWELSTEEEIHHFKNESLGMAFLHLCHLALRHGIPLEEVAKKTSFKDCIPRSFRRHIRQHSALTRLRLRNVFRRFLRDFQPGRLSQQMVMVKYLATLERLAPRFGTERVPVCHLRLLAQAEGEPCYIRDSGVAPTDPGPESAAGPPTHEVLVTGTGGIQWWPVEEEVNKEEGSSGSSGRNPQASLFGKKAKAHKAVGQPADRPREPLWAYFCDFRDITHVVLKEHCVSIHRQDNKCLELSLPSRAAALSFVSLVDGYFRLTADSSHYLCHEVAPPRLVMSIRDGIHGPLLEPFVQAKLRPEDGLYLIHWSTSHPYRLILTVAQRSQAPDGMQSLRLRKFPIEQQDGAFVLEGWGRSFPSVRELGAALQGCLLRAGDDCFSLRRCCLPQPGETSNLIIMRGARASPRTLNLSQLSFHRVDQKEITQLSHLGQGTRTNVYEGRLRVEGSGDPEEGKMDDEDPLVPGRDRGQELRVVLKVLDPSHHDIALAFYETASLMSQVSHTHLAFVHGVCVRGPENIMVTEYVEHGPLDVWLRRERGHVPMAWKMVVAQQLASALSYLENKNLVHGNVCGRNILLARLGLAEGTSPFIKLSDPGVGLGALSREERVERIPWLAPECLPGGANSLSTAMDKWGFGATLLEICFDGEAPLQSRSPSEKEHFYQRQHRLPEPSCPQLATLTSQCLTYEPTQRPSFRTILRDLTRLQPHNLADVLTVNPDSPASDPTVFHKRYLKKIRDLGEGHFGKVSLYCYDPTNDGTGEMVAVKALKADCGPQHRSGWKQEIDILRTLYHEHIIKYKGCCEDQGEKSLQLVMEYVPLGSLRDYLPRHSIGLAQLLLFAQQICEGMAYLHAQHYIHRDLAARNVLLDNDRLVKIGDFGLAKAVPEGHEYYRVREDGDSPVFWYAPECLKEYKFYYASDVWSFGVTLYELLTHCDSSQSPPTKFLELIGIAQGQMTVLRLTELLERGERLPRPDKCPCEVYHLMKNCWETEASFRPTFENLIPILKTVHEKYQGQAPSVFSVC
T1 sequence (O60674 whole entry): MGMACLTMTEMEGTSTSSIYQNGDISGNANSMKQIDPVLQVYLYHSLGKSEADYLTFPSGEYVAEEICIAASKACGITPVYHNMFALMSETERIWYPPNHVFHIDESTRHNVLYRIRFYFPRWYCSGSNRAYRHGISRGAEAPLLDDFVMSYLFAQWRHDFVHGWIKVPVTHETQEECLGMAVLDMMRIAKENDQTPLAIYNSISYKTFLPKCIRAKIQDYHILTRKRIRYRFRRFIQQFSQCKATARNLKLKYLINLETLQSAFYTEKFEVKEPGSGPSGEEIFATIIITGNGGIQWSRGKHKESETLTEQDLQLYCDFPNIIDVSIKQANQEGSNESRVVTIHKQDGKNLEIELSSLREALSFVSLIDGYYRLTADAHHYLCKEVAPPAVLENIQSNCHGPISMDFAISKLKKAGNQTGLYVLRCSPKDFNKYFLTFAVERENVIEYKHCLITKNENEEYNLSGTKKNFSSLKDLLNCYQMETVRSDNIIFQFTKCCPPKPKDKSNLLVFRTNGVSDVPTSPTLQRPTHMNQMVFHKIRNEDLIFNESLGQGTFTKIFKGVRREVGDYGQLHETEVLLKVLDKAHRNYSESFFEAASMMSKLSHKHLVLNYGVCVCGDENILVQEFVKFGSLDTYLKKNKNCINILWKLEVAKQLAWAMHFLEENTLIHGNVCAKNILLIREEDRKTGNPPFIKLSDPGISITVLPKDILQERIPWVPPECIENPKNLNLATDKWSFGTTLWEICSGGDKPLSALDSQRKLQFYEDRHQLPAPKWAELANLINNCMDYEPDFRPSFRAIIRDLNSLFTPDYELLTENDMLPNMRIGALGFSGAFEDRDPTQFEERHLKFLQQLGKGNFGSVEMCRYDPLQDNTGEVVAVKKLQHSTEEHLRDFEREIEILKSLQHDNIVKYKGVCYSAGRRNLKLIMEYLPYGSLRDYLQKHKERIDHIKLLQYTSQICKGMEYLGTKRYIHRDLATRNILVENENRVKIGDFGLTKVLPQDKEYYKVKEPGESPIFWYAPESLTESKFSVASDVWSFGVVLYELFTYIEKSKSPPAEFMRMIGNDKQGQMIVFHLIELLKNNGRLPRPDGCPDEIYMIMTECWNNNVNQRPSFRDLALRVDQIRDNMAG

Work on `CC(C)(C)c1cc2nc(C(=O)c3ccc(F)cc3)nc(Nc3cc[nH]n3)c2s1` [Example 28, (4-(1H-pyrazol-3-ylamino)-6-tert-butylthieno[3,2-d]pyrimidin-2-yl)(4-fluorophenyl)methanone] yielded an IC50 [1] of 100 to 500 nM, a Kd [2] of 1 to 10 nM and a Kd [3] of over 100 nM. For the same compound, the Kd [4] was over 100 nM and the “S-Score: S(10) at 10 μM” value [5] was “A (A ≦ 0.3)”.
`Cc1cc(Nc2nc(C(=O)c3ccc(F)cc3)nc3sccc23)n[nH]1` [Example 3, (4-fluorophenyl)(4-(5-methyl-1H-pyrazol-3-ylamino)thieno[2,3-d]pyrimidin-2-yl)methanone] gave an IC50 [1] of at most 100 nM, a Kd [2] of at most 1 nM and a Kd [3] of at most 10 nM. The Kd [4] was 10 to 100 nM and the “S-Score: S(10) at 10 μM” value [5] was “B (0.3 < B ≦ 0.4)”.
Work on `COC(c1ccc(F)cc1)c1nc(Nc2cc(C)[nH]n2)c2ccsc2n1` (racemic) [Example 9, (R,S)-2-((4-fluorophenyl)(methoxy)methyl)-N-(5-methyl-1H-pyrazol-3-yl)thieno[2,3-d]pyrimidin-4-amine] yielded an IC50 [1] of 100 to 500 nM, a Kd [2] of at most 1 nM and a Kd [3] of 10 to 100 nM. For the same compound, the Kd [4] was at most 10 nM and the “S-Score: S(10) at 10 μM” value [5] was “A (A ≦ 0.3)”.
With `Cc1csc2nc(C(O)c3ccc(F)cc3)nc(Nc3cc[nH]n3)c12` (racemic) [Example 13, (R,S)-(4-(1H-pyrazol-3-ylamino)-5-methylthieno[2,3-d]pyrimidin-2-yl)(4-fluorophenyl)methanol] the IC50 [1] was over 500 nM, the Kd [2] was over 10 nM and the Kd [3] was over 100 nM. The Kd [4] was over 100 nM and the “S-Score: S(10) at 10 μM” value [5] was “A (A ≦ 0.3)”.
`Cc1cc(Nc2nc(C(O)c3ccc(F)cc3)nc3cc(C(C)(C)C)sc23)n[nH]1` (stereo not drawn) [Example 27, (6-tert-butyl-4-(5-methyl-1H-pyrazol-3-ylamino)thieno[3,2-d]pyrimidin-2-yl)(4-fluorophenyl)methanol] gave an IC50 [1] of 100 to 500 nM, a Kd [2] of at most 1 nM and a Kd [3] of 10 to 100 nM. The Kd [4] was over 100 nM and the “S-Score: S(10) at 10 μM” value [5] was “A (A ≦ 0.3)”.
For `CC(C)(C)c1cc2nc(C(F)(F)c3ccc(F)cc3)nc(Nc3cc[nH]n3)c2s1` [Example 31, 6-tert-butyl-2-(difluoro(4-fluorophenyl)methyl)-N-(1H-pyrazol-3-yl)thieno[3,2-d]pyrimidin-4-amine], the IC50 [1] was 100 to 500 nM, the Kd [2] was 1 to 10 nM and the Kd [3] was over 100 nM. The Kd [4] was over 100 nM and the “S-Score: S(10) at 10 μM” value [5] was “A (A ≦ 0.3)”.
`Cc1csc2c(Nc3cc[nH]n3)nc(C(O)c3ccc(F)cc3)nc12` (stereo not drawn) [Example 25, (4-(1H-Pyrazol-3-ylamino)-7-methylthieno[3,2-d]pyrimidin-2-yl)(4-fluorophenyl)methanol] was tested, and the IC50 [1] was 100 to 500 nM, the Kd [2] was 1 to 10 nM and the Kd [3] was 10 to 100 nM. The Kd [4] was at most 10 nM.
For `Fc1ccc(C(F)(F)c2nc(Nc3cc[nH]n3)c3sccc3n2)cc1` [Example 8, 2-(difluoro(4-fluorophenyl)methyl)-N-(1H-pyrazol-3-yl)thieno[3,2-d]pyrimidin-4-amine], the IC50 [1] was at most 100 nM, the Kd [2] was at most 1 nM and the Kd [3] was 10 to 100 nM. The Kd [4] was at most 10 nM and the “S-Score: S(10) at 10 μM” value [5] was “A (A ≦ 0.3)”.
With `Cc1cc(Nc2nc(C(O)c3ccc(F)cc3)nc3cscc23)n[nH]1` (racemic) [Example 32, (R,S)-(4-fluorophenyl)(4-(5-methyl-1H-pyrazol-3-ylamino)thieno[3,4-d]pyrimidin-2-yl)methanol] the IC50 [1] was at most 100 nM, the Kd [2] was at most 1 nM and the Kd [3] was at most 10 nM. The Kd [4] was at most 10 nM and the “S-Score: S(10) at 10 μM” value [5] was “B (0.3 < B ≦ 0.4)”.
With `Cc1cc2c(Nc3cn(C)cn3)nc(C(O)c3ccc(F)cc3)nc2s1` (stereo not drawn) [Example 34, (4-fluorophenyl)(6-methyl-4-(1-methyl-1H-imidazol-4-ylamino)thieno[2,3-d]pyrimidin-2-yl)methanol] the IC50 [1] was 100 to 500 nM, the Kd [2] was at most 1 nM and the Kd [3] was over 100 nM. For the same compound, the “S-Score: S(10) at 10 μM” value [5] was “A (A ≦ 0.3)”.
For `Cc1cc(Nc2nc(C(=O)c3ccc(F)cc3)nc3cc(C)sc23)n[nH]1` [Example 20, (4-fluorophenyl)(6-methyl-4-(5-methyl-1H-pyrazol-3-ylamino)thieno[3,2-d]pyrimidin-2-yl)methanone], the IC50 [1] was at most 100 nM, the Kd [2] was at most 1 nM and the Kd [3] was at most 10 nM. The Kd [4] was 10 to 100 nM and the “S-Score: S(10) at 10 μM” value [5] was “B (0.3 < B ≦ 0.4)”.
With `Fc1ccc(C(F)(F)c2nc(Nc3cc[nH]n3)c3ccsc3n2)cc1` [Example 2, 2-(difluoro(4-fluorophenyl)methyl)-N-(1H-pyrazol-3-yl)thieno[2,3-d]pyrimidin-4-amine] the IC50 [1] was at most 100 nM, the Kd [2] was at most 1 nM and the Kd [3] was 10 to 100 nM. The Kd [4] was at most 10 nM and the “S-Score: S(10) at 10 μM” value [5] was “A (A ≦ 0.3)”.
`Cc1cc(Nc2nc(C(O)c3ccc(F)cc3)nc3sc(C)cc23)n[nH]1` (racemic) [Example 16, (R,S)-(4-fluorophenyl)(6-methyl-4-(5-methyl-1H-pyrazol-3-ylamino)thieno[2,3-d]pyrimidin-2-yl)methanol] was tested, and the IC50 [1] was at most 100 nM, the Kd [2] was at most 1 nM and the Kd [3] was 10 to 100 nM. The Kd [4] was at most 10 nM and the “S-Score: S(10) at 10 μM” value [5] was “C (0.4 < C ≦ 0.5)”.
`Cc1cc(Nc2nc(C(F)(F)c3ccc(F)cc3)nc3cc(C(C)(C)C)sc23)n[nH]1` [Example 30, 6-tert-butyl-2-(difluoro(4-fluorophenyl)methyl)-N-(5-methyl-1H-pyrazol-3-yl)thieno[3,2-d]pyrimidin-4-amine] gave an IC50 [1] of 100 to 500 nM, a Kd [2] of 1 to 10 nM and a Kd [3] of 10 to 100 nM. The Kd [4] was over 100 nM and the “S-Score: S(10) at 10 μM” value [5] was “A (A ≦ 0.3)”.
With `Cc1cc(Nc2nc(C(C)(O)c3ccc(F)cc3)nc3ccsc23)n[nH]1` (racemic) [Example 18, (R,S)-1-(4-fluorophenyl)-1-(4-(5-methyl-1H-pyrazol-3-ylamino)thieno[3,2-d]pyrimidin-2-yl)ethanol] the IC50 [1] was at most 100 nM, the Kd [2] was at most 1 nM and the Kd [3] was at most 10 nM. It also gave a Kd [4] of at most 10 nM.

— patent US20130317045A1, “THIENOPYRIDINE AND THIENOPYRIMIDINE COMPOUNDS AND METHODS OF USE THEREOF” (AMBIT BIOSCIENCES CORPORATION, priority 2010, published 2013)
